Results taken from patent US20230117034A1, “PYRAZOLOTRIAZINES” (Bayer Aktiengesellschaft, priority 2019, published 2023).

How the values were obtained:
CDK12/CycK = CDK12/CycK (Homo sapiens, UniProt Q9NYV4); assay: CDK12/CycK high ATP kinase assay (TR-FRET, 2 mM ATP); assay type: biochemical; conditions: 2 mM ATP (high ATP); median; read-out: CDK12/CyclinK, 2 mM ATP (high ATP), IC50-[mol/l] (median)
Summary of the method: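 His-tagged human CDK12/CycK (~0.75 nM) pre-incubated 15 min with compound, then 60 min at 22 °C with 2 mM ATP and 1 µM biotinylated peptide (HEPES pH 7.5, 20 mM MgCl2). EDTA stop; phospho-Ser62 antibody/Eu anti-rabbit and streptavidin-XL665 TR-FRET, 665/620 nm ratio normalised to give IC50.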

[1] = test system: BRCA1 mRNA expression in CAL-120 cells; assay: qRT-PCR assay: BRCA1 mRNA expression in CAL-120; assay type: cell-based; conditions: Homo sapiens; Inhibition of BRCA1 mRNA expression in CAL-120 cells; median; read-out: RTqPCR-CAL-120, IC50, BRCA1 (median)
Summary of the method: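 Cells were seeded at 200,000 cells/well, left 24 h, then exposed continuously to test substances for 24 h. Total RNA (600 ng) was reverse-transcribed to cDNA and amplified by qPCR, and transcript levels were normalised to GAPDH housekeeping expression.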

[2] = biological target: T1, CDK12 protein level in CAL-120 breast cancer cells (Homo sapiens, UniProt Q9NYV4); assay: CDK12 protein level: Protein Simple (CDK12, CAL-120); assay type: cell-based; conditions: CAL-120 cells, 18 h with compound, CDK12/HSP90 peak area ratio vs vehicle, median, read-out: CDK12 protein level in CAL-120 breast ca cells, DC50-[mol/l] (median)
T1 construct: endogenous in cells; host or cells: CAL-120 human breast cancer cells (DSMZ ACC 459)
Summary of the method: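 Cells grown 24 h, then treated with compounds for 18 h at 37° C against DMSO controls. Lysates (0.4 microgramms protein) run on Protein Simple 66-440 kDa size assay with CDK12 and HSP90 loading-control antibodies. CDK12/HSP90 peak-area ratios versus vehicle gave DC50 (50% reduction) by 4-parameter fit.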

Sequence of CDK12/CycK (Q9NYV4 with tags, fused parts or gaps): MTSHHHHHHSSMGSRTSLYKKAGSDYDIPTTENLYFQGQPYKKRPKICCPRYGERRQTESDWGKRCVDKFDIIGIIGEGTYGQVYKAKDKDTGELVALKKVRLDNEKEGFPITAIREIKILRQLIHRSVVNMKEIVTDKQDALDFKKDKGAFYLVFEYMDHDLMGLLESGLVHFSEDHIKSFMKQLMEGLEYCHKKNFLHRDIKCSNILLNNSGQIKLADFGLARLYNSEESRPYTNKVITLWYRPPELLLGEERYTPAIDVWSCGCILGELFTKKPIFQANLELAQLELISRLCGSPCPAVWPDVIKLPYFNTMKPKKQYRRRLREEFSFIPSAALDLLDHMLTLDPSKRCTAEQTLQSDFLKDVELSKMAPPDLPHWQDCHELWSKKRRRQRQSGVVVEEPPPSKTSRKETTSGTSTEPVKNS
Sequence of CDK12/CycK (O75909 1-300 partner limits assumed): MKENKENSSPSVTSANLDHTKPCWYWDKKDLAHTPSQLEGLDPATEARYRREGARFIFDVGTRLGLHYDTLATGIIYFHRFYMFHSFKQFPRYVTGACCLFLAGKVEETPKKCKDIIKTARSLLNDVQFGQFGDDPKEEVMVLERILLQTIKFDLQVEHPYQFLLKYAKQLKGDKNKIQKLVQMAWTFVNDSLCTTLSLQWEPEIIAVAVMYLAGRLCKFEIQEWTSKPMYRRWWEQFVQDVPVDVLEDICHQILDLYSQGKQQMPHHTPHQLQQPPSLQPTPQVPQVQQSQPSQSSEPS
T1 sequence (Q9NYV4 whole entry): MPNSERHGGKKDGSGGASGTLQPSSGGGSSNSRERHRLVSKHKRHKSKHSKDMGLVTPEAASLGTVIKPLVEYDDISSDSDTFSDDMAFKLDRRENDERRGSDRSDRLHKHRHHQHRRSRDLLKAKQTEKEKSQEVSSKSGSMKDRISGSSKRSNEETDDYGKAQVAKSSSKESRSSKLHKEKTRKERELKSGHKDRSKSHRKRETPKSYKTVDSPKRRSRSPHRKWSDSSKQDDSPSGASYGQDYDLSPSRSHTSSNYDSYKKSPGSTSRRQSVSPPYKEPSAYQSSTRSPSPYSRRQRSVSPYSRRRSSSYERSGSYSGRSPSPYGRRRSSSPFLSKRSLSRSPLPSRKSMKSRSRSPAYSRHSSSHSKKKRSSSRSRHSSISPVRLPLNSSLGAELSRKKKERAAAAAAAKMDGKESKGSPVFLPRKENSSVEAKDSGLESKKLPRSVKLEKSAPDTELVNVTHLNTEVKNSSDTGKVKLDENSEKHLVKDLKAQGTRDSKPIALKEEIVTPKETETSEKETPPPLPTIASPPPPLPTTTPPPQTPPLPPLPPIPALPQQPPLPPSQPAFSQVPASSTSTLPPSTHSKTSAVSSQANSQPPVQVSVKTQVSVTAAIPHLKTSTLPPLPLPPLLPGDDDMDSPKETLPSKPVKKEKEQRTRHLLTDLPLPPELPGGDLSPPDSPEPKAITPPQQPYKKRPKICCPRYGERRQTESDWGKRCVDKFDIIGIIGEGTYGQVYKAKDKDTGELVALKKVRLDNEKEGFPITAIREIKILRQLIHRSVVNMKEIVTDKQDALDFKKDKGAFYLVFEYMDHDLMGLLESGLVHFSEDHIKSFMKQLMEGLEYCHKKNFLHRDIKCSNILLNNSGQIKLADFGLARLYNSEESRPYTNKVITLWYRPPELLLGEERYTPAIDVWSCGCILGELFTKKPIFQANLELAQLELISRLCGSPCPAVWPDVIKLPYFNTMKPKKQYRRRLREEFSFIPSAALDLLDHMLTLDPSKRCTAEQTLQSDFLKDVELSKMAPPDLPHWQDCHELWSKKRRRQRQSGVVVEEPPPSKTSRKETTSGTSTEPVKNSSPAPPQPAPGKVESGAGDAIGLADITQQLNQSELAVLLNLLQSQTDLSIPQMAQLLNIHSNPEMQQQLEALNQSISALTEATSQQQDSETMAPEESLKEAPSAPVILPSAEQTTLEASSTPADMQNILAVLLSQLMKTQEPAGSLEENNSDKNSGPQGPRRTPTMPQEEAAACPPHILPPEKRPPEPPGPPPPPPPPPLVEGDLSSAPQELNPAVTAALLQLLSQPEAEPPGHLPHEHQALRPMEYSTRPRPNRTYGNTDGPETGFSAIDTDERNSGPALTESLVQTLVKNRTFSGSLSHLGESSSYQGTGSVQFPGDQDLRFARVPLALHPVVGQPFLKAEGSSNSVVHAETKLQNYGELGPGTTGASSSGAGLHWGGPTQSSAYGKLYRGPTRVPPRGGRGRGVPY
T1 sequence (O75909 whole entry partner): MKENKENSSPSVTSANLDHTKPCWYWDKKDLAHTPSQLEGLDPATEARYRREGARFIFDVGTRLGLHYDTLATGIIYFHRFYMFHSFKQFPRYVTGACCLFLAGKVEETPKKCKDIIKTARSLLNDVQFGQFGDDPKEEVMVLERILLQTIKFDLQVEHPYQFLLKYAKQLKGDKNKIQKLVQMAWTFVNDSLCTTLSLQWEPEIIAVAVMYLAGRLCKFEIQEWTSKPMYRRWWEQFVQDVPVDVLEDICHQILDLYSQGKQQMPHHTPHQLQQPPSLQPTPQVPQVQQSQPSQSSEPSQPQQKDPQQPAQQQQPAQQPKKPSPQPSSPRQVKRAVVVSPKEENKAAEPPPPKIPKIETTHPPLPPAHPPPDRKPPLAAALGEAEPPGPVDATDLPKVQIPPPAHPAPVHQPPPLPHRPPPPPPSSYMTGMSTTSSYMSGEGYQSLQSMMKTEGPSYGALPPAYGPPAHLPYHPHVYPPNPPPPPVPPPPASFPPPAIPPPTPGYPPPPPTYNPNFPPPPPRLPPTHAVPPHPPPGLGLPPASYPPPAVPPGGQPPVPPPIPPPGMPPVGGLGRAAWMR

| IC50 (CDK12/CycK) [nM] | IC50 [1] [nM] | DC50 [2] [nM] | SMILES |
| --- | --- | --- | --- |
| 9640 | 211 | > 100 | Brc1cnn2c(NCc3nc4c([nH]3)CCCC4)nc(N3CCOCC3)nc12 [Example 21, 8-bromo-2-(morpholin-4-yl)-N-[(4,5,6,7-tetrahydro-1H-benzimidazol-2-yl)methyl]pyrazolo[1,5-a][1,3,5]triazin-4-amine] |
| 1750 | 17.7 | 2.6 | Cc1ccnc2[nH]c(CNc3nc(N4CCOCC4)nc4c(Br)cnn34)nc12 [Example 20, 8-bromo-N-[(7-methyl-3H-imidazo[4,5-b]pyridin-2-yl)methyl]-2-(morpholin-4-yl)pyrazolo[1,5-a][1,3,5]triazin-4-amine] |
